Data set [1] can be described thus: pKa of amine lipid by TNS fluorescence. The conditions noted are these: probe TNS (6-(p-toluidino)-2-naphthalenesulfonic acid sodium salt), unformulated amine lipid in ethanol, sodium phosphate buffers -9.0. The class given is physicochemical. The protocol: The pKa of each amine lipid was determined according to the method in Jayaraman, et al. (Angewandte Chemie, 2012) with the following adaptations. The pKa was determined for unformulated amine lipid in ethanol. Lipid stock solutions (2.94 mM) were diluted into Sodium Phosphate Buffers (0.1 M, Boston Bioproducts) of different pH (pH-range: 4.5-9.0) yielding a final lipid concentration of approx. 100 μM. The test samples were supplemented with TNS {6-(p-Toluidino)-2-naphthalenesulfonic acid sodium salt}, incubated and the fluorescence intensity was measured using excitation and emission wavelengths of 321 nm and 448 nm, respectively. The recorded data were normalized and the respective pKa values were derived from sigmoidal fitting.

The next data set relates to mouse TTR. The experiment in a line: Serum TTR ELISA in mice after LNP delivery. The class given is in vivo. The conditions noted are these: mouse serum, relative to TSS control of same experiment. The protocol: For studies measuring in vivo editing in liver, CD-1 female mice were dosed at 0.1 mpk unless otherwise noted. Animals were euthanized at 6 or 7 days by exsanguinationvia cardiac puncture under isoflourane anesthesia. Liver tissue was collected from each animal for DNA extraction and analysis. Blood was collected into serum separator tubes or into tubes containing buffered sodium citrate for plasma as described herein. Cohorts of mice were measured for editing by Next-Generation Sequencing (NGS).
Blood was collected and the serum was isolated as indicated. The total mouse TTR serum levels were determined using a Mouse Prealbumin (Transthyretin) ELISA Kit (Aviva Systems Biology, Cat. OKIA00111). Briefly, sera were serial diluted with kit sample diluent, e.g. to a final dilution of 10,000-fold and/or 2,500-fold. The diluted sample was then added to the ELISA plates and the assay was then carried out according to directions. Serum TTR data from treatment groups are expressed as a percentage of vehicle control levels.

Data on 21 compounds can be found in patent US12077483B2, “Modified amine lipids” (Intellia Therapeutics, Inc., priority 2018, dated 2024).

As usually defined, the pKa is the pH at which an ionisable group is half protonated.

Regarding `CCCCC/C=C\C/C=C\CCCCCCCC(=O)OCC(COC(=O)CCCCCCC/C=C\C/C=C\CCCCC)OC(=O)CCC(CCCCCCCCCCCC)OC(=O)OCCN(C)C` (centres unmarked) [Compound 4, 2-((4-(((2-(dimethylamino)ethoxy)carbonyl)oxy)hexadecanoyl)oxy)propane-1,3-diyl (9Z,9′Z,12Z,12′Z)-bis(octadeca-9,12-dienoate)], the pKa in data set [1] is < 5. In addition, the “Serum TTR % TSS” value in the data set with mouse TTR (dose 0.03 mpk) came out at 73.09 % TSS. With `CCCCC/C=C\C/C=C\CCCCCCCC(=O)OCC(COC(=O)CCCCCCC/C=C\C/C=C\CCCCC)OC(=O)CCC(CCCCCCCCCCCC)OC(=O)OCCCN(CC)CC` (centres unmarked) [Compound 2, 2-((4-(((3-(diethylamino)propoxy)carbonyl)oxy)hexadecanoyl)oxy)propane-1,3-diyl (9Z,9′Z,12Z,12′Z)-bis(octadeca-9,12-dienoate)], the pKa in data set [1] amounted to 5.28. Regarding `CCCCCCCCCCOC(=O)CCCCCCCC(=O)OCC(COC(=O)CCCCCCCC(=O)OCCCCCCCCCC)OC(=O)CCCC(CCCCCCCC)OC(=O)NCCN(C)CC` (centres unmarked) [Compound 58], the pKa in data set [1] is 6.32. For the compound `CCCCC/C=C\C/C=C\CCCCCCCC(=O)OCC(COC(=O)CCCCCCC/C=C\C/C=C\CCCCC)COC(=O)CCC(CCCCCCCC)OC(=O)NCCN(C)CC` (centres unmarked) [Compound 54, 2-(12-methyl-6-octyl-3,8-dioxo-2,7-dioxa-9,12-diazatetradecyl)propane-1,3-diyl (9Z,9′Z,12Z,12′Z)-bis(octadeca-9,12-dienoate)], the pKa in data set [1] was 6.25. For the same compound, the “Serum TTR % TSS” value with mouse TTR (dose 0.1 mpk) is reported as 18.32 % TSS. For the compound `CCCCCCCCCCOC(=O)CCCCCCCC(=O)OCC(COC(=O)CCCCCCCC(=O)OCCCCCCCCCC)OC(=O)CC(CCCCCCCC)OC(=O)NCCN(C)CC` (centres unmarked) [Compound 56, 9,9′-didecyl O′1,O1-(2-((3-(((2-(ethyl(methyl)amino)ethyl)carbamoyl)oxy)undecanoyl)oxy)propane-1,3-diyl) di(nonanedioate)], the pKa in data set [1] was found to be 6.28. The “Serum TTR % TSS” value with mouse TTR (dose 0.1 mpk) is reported as 69.70 % TSS. Regarding `CCCCC/C=C\C/C=C\CCCCCCCC(=O)OCC(COC(=O)CCCCCCC/C=C\CCCCCCCC)OC(=O)CCC(CCCC)OC(=O)NCCN1CCCC1` (centres unmarked) [Compound 109, 3-(oleoyloxy)-2-((4-(((2-(pyrrolidin-1-yl)ethyl)carbamoyl)oxy)octanoyl)oxy)propyl (9Z,12Z)-octadeca-9,12-dienoate], in data set [1], the pKa came to 6.91.

With `CCCCC/C=C\C/C=C\CCCCCCCC(=O)OCC(COC(=O)CCCCCCC/C=C\C/C=C\CCCCC)OC(=O)CCC(CCCCCC(C)C)OC(=O)NCCN(C)CC` (centres unmarked) [Compound 81, 2-((4-(((2-(ethyl(methyl)amino)ethyl)carbamoyl)oxy)-10-methylundecanoyl)oxy)propane-1,3-diyl (9Z,9′Z,12Z,12′Z)-bis(octadeca-9,12-dienoate)], the pKa in data set [1] came to 6.42. In the case of `CCCCC/C=C\C/C=C\CCCCCCCC(=O)OCC(COC(=O)CCCCCCC/C=C\C/C=C\CCCCC)OC(=O)CCC(CCCCCC)OC(=O)OCCCN1CCC1` (centres unmarked) [Compound 101, 2-((4-(((3-(azetidin-1-yl)propoxy)carbonyl)oxy)decanoyl)oxy)propane-1,3-diyl (9Z,9′Z,12Z,12′Z)-bis(octadeca-9,12-dienoate)], the pKa in data set [1] turned out to be 6.75. For `CCCCC/C=C\C/C=C\CCCCCCCC(=O)OCC(COC(=O)CCCCCCC/C=C\C/C=C\CCCCC)OC(=O)CCCOC(=O)NCCN(C)CC` [Compound 43, 2-((4-(((2-(ethyl(methyl)amino)ethyl)carbamoyl)oxy)butanoyl)oxy)propane-1,3-diyl (9Z,9′Z,12Z,12′Z)-bis(octadeca-9,12-dienoate)], the pKa in data set [1] came to 7.33. As to `CCCCC/C=C\C/C=C\CCCCCCCC(=O)OCC(COC(=O)CCCCCCC/C=C\C/C=C\CCCCC)OC(=O)CCC(CCCCCC)OC(=O)OCCCN1CCCCC1` (centres unmarked) [Compound 102, 2-((4-(((3-(piperidin-1-yl)propoxy)carbonyl)oxy)decanoyl)oxy)propane-1,3-diyl (9Z,9′Z,12Z,12′Z)-bis(octadeca-9,12-dienoate)], in data set [1], the pKa came to 5.16. On to `CCCCCCCC/C=C\CCCCCCCC(=O)OCC(COC(=O)CCCCCCC/C=C\CCCCCCCC)OC(=O)CCC(CCCC)OC(=O)NCCN1CCCC1` (centres unmarked) [Compound 110, 2-((4-(((2-(pyrrolidin-1-yl)ethyl)carbamoyl)oxy)octanoyl)oxy)propane-1,3-diyl dioleate], for which the pKa in data set [1] stood at 7.01.

For `CCCCC/C=C\C/C=C\CCCCCCCC(=O)OCC(COC(=O)CCCCCCC/C=C\C/C=C\CCCCC)COC(=O)CCC(CCCC)OC(=O)NCCN1CCCC1` (centres unmarked) [Compound 112, 2-(((4-(((2-(pyrrolidin-1l-yl)ethyl)carbamoyl)oxy)octanoyl)oxy)methyl)propane-1,3-diyl (9Z,9′Z,12Z,12′Z)-bis(octadeca-9,12-dienoate)], in data set [1], the pKa came to 7.02. `CCCCC/C=C\C/C=C\CCCCCCCC(=O)OCC(COC(=O)CCCCCCC/C=C\C/C=C\CCCCC)OC(=O)CCC(CCCCCC(C)C)OC(=O)NCCN1CCCC1` (centres unmarked) [Compound 83, 2-((10-methyl-4-(((2-(pyrrolidin-1-yl)ethyl)carbamoyl)oxy)undecanoyl)oxy)propane-1,3-diyl (9Z,9′Z,12Z,12′Z)-bis(octadeca-9,12-dienoate)]: the pKa in data set [1] came to 6.61. As to `CCCCC/C=C\C/C=C\CCCCCCCC(=O)OCC(COC(=O)CCCCCCC/C=C\C/C=C\CCCCC)OC(=O)CCC(CCCCCCCC)OC(=O)N(C)CCN(C)CC` (centres unmarked) [Compound 37, 2-((4-(((2-(ethyl(methyl)amino)ethyl)(methyl)carbamoyl)oxy)dodecanoyl)oxy) propane-1,3-diyl (9Z,9′Z,12Z,12′Z)-bis(octadeca-9,12-dienoate)], the pKa in data set [1] amounted to 5.36.

Regarding `CCCCC/C=C\C/C=C\CCCCCCCC(=O)OCC(COC(=O)CCCCCCC/C=C\C/C=C\CCCCC)OC(=O)CCC(CCCCCCCCCCCC)OC(=O)OC1CCN(C)CC1` (centres unmarked) [f47], in data set [1], the pKa stood at 5.99. Regarding `CCCCC/C=C\C/C=C\CCCCCCCC(=O)OCC(COC(=O)CCCCCCC/C=C\C/C=C\CCCCC)OC(=O)CCC(CCCCC(C)C)OC(=O)NCCN1CCCC1` (centres unmarked) [Compound 82, 2-((9-methyl-4-(((2-(pyrrolidin-1-yl)ethyl)carbamoyl)oxy)decanoyl)oxy)propane-1,3-diyl (9Z,9′Z,12Z,12′Z)-bis(octadeca-9,12-dienoate)], the pKa in data set [1] is 6.71. The same measure, in the same setting: to `CCCCC/C=C\C/C=C\CCCCCCCC(=O)OCC(COC(=O)CCCCCCC/C=C\C/C=C\CCCCC)OC(=O)CCC(CCCCCCCCCCCC)OC(=O)NCCCN(CC)CC` (centres unmarked) [Compound 13, 2-((4-(((3-(diethylamino)propyl)carbamoyl)oxy)hexadecanoyl)oxy)propane-1,3-diyl (9Z,9′Z,12Z,12′Z)-bis(octadeca-9,12-dienoate)] belongs 7.2. In the case of `CCCCC/C=C\C/C=C\CCCCCCCC(=O)OCC(COC(=O)CCCCCCC/C=C\C/C=C\CCCCC)COC(=O)C(C)(C)C(CCCCCCCC)OC(=O)NCCN(C)CC` (centres unmarked) [Compound 99, 2-(4,4,11-trimethyl-5-octyl-3,7-dioxo-2,6-dioxa-8,11-diazatridecyl)propane-1,3-diyl (9Z,9′Z,12Z,12′Z)-bis(octadeca-9,12-dienoate)], the pKa in data set [1] was determined as 5.96. The “Serum TTR % TSS” value with mouse TTR (dose 0.03 mpk) amounted to 92.42 % TSS; in the data set on mouse TTR (dose 0.1 mpk), 42.87 % TSS. On to `CCCCC/C=C\C/C=C\CCCCCCCC(=O)OCC(COC(=O)CCCCCCC/C=C\C/C=C\CCCCC)COC(=O)CC(CCCC)OC(=O)NCCN1CCCC1` (centres unmarked) [Compound 113, 2-(((3-(((2-(pyrrolidin-1-yl)ethyl)carbamoyl)oxy)heptanoyl)oxy)methyl)propane-1,3-diyl (9Z,9′Z,12Z,12′Z)-bis(octadeca-9,12-dienoate)], for which the pKa in data set [1] was determined as 7.02. Still for that read-out and setting: to `CCCCC/C=C\C/C=C\CCCCCCCC(=O)OCC(COC(=O)CCC(CCCC)OC(=O)NCCN1CCCC1)OC(=O)CCCCCCC/C=C\C/C=C\CCCCC` (centres unmarked) [Compound 111, 3-((4-(((2-(pyrrolidin-1-yl)ethyl)carbamoyl)oxy)octanoyl)oxy)propane-1,2-diyl (9Z,9′Z,12Z,12′Z)-bis(octadeca-9,12-dienoate)] belongs 7.02; to `CCCCC/C=C\C/C=C\CCCCCCCC(=O)OCC(COC(=O)CCCCCCC/C=C\C/C=C\CCCCC)OC(=O)CCC(CCCCC(C)C)OC(=O)NCCN(C)CC` (centres unmarked) [Compound 80, 2-((4-(((2-(ethyl(methyl)amino)ethyl)carbamoyl)oxy)-9-methyldecanoyl)oxy)propane-1,3-diyl (9Z,9′Z,12Z,12′Z)-bis(octadeca-9,12-dienoate)], 6.41.
